From US9480259B2, “Pyrazolopyrans having herbicidal and pharmaceutical properties” (BASF SE, priority 2012, dated 2016)

These compounds were tested against Arabidopsis thaliana SHMT (assay: SHMT activity assay (ED50 SHMT), coupled with N5,N10-CH2-THF dehydrogenase, NADH at 340 nm). Settings: Arabidopsis thaliana SHMT enzyme assay; values given as upper bounds.
Type: biochemical
Outline: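 His-tagged SHMT purified on Ni-NTA. NADH formation followed at 340 nm for 30 min; ED50 from inhibition of initial velocity.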
Compound `Cc1n[nH]c2c1C(c1cc(C#N)cc(N(C)C(=O)CCCc3nnn[nH]3)c1)(C1CCC1)C(C#N)=C(N)O2` (stereo not shown) [Compound 2.727] has an EC50 of under 0.1 µM.
Work on `COC(=O)c1ccc(-c2cc(C#N)cc(C3(C4(F)COC4)C(C#N)=C(N)Oc4[nH]nc(C)c43)c2)s1` (stereo not shown) [Compound 2.676] yielded an EC50 of under 0.1 µM.
Compound `Cc1n[nH]c2c1C(c1cc(C#N)cc(N(C)S(=O)(=O)CC#N)c1)(C1CCC1)C(C#N)=C(N)O2` (stereo not shown) [Compound 2.724] has an EC50 of under 0.1 µM.
Work on `CCOC(=O)CCCN(C)c1cc(C#N)cc(C2(C3CCC3)C(C#N)=C(N)Oc3[nH]nc(C)c32)c1` (stereo not shown) [Compound 2.658] yielded an EC50 of under 0.01 µM.

Same assay, conditions: Table 2, Arabidopsis thaliana SHMT enzyme assay; values given as upper bounds
Compound `Cc1n[nH]c2c1C(c1cc(Cl)cc(-c3ccoc3)c1)(C1CCC1)C(C#N)=C(N)O2` (stereo not shown) [Compound 2.220] has an EC50 of under 0.01 µM.
`COc1ccc(C2(C3CCC3)C(C#N)=C(N)Oc3[nH]ncc32)cc1Br` (stereo not shown) [Compound 2.255] was tested, and the EC50 was under 0.01 µM.
For `Cc1n[nH]c2c1C(c1cc(Cl)c(Cl)c(C(F)(F)F)c1)(C1CCC1)C(C#N)=C(N)O2` (stereo not shown) [Compound 2.273], the EC50 was under 0.01 µM.
For `Cc1n[nH]c2c1C(c1ccc(C(F)(F)F)c(C(F)(F)F)c1)(C1CCC1)C(C#N)=C(N)O2` (stereo not shown) [Compound 2.272], the EC50 was under 0.01 µM.
Compound `Cc1n[nH]c2c1C(c1cc(C#N)cc(-c3cccc(Cl)c3)c1)(C1CCC1)C(C#N)=C(N)O2` (stereo not shown) [Compound 2.332] has an EC50 of under 0.01 µM.
Compound `Cc1n[nH]c2c1C(c1cc(Cl)cc(Oc3ccccc3F)c1)(C1CCC1)C(C#N)=C(N)O2` (stereo not shown) [Compound 2.235] has an EC50 of under 0.01 µM.
With `Cc1n[nH]c2c1C(c1cc(Cl)cc(-c3ccc(O)cc3)c1)(C1CCC1)C(C#N)=C(N)O2` (stereo not shown) [Compound 2.226] the EC50 was under 0.01 µM.
`Cc1n[nH]c2c1C(c1cc(Br)cc(Br)c1)(C1CC=CC1)C(C#N)=C(N)O2` (stereo not shown) [Compound 2.300] was tested, and the EC50 was under 0.01 µM.
`COc1ccc(C2(C3CCCC3)C(C#N)=C(N)Oc3[nH]nc(C)c32)cc1C(F)(F)F` (stereo not shown) [Compound 2.215] was tested, and the EC50 was under 0.01 µM.
Compound `Cc1n[nH]c2c1C(c1ccc(F)c(Cl)c1)(C1CCCC1)C(C#N)=C(N)O2` (stereo not shown) [Compound 2.228] has an EC50 of under 0.1 µM.

Same assay, conditions: Table 2; values given as upper bounds
Work on `Cc1n[nH]c2c1C(c1cc(Cl)cc(-c3ccc(NS(C)(=O)=O)cc3)c1)(C1CCC1)C(C#N)=C(N)O2` (racemic) [Compound 2.528] yielded an EC50 of under 0.01 µM.
Work on `Cc1n[nH]c2c1C(c1ccc(OCCC#N)c(Cl)c1)(C1CCC1)C(C#N)=C(N)O2` (stereo not shown) [Compound 2.645] yielded an EC50 of under 0.01 µM.
Compound `Cc1n[nH]c2c1C(c1cccc(C(F)(F)F)c1)(C(C)C)C(C#N)=C(N)O2` (stereo not shown) [Compound 2.137.] has an EC50 of under 0.1 µM.
`CCC1(c2cc(Cl)cc(C#N)c2)C(C#N)=C(N)Oc2[nH]nc(OC)c21` (stereo not shown) [Compound 2.598] was tested, and the EC50 was under 1 µM.
For `Cc1n[nH]c2c1C(c1cc(C#N)cc(-c3ccc(C(=O)O)s3)c1)(C1CCC1)C(C#N)=C(N)O2` (stereo not shown) [Compound 2.640], the EC50 was under 0.01 µM.
Work on `Cc1n[nH]c2c1C(c1cc(C#N)cc(OCC#N)c1)(C1CCC1)C(C#N)=C(N)O2` (stereo not shown) [Compound 2.471] yielded an EC50 of under 0.01 µM.
`N#CC1=C(N)Oc2[nH]nc(C3CC3)c2C1(c1cc(Cl)cc(Cl)c1)C1CCC1` (racemic) [Compound 2.156.] was tested, and the EC50 was under 0.1 µM.
With `Cc1n[nH]c2c1C(c1cc(C#N)cc(N(C)CCC#N)c1)(C1CCC1)C(C#N)=C(N)O2` (stereo not shown) [Compound 2.629] the EC50 was under 0.01 µM.
Compound `CCC1(c2cc(C#N)cc(C(F)(F)F)c2)C(C#N)=C(N)Oc2[nH]nc(COC)c21` (stereo not shown) [Compound 2.588] has an EC50 of under 0.1 µM.
With `COC(=O)c1cc(OC(F)(F)F)cc(-c2cc(C#N)cc(C3(C4CCC4)C(C#N)=C(N)Oc4[nH]nc(C)c43)c2)c1` (stereo not shown) [Compound 2.551] the EC50 was under 0.1 µM.
`CC(=O)N(C)c1cc(C#N)cc(C2(C3(F)CC3)C(C#N)=C(N)Oc3[nH]nc(C)c32)c1` (stereo not shown) [Compound 2.451] showed an EC50 of under 0.01 µM.
`Cc1n[nH]c2c1C(c1cc(C#N)cc(-c3ccc(C(=O)O)c(C(=O)O)c3)c1)(C1CCC1)C(C#N)=C(N)O2` (stereo not shown) [Compound 2.565] showed an EC50 of under 0.01 µM.
`CCCc1n[nH]c2c1C(CC)(c1cc(C(F)(F)F)cc(C(F)(F)F)c1)C(C#N)=C(N)O2` (stereo not shown) [Compound 2.83.] gave an EC50 of under 1 µM.
Compound `CCC1(c2cc(C(F)(F)F)cc(C(F)(F)F)c2)C(C#N)=C(N)Oc2[nH]nc(COC)c21` (stereo not shown) [Compound 2.82.] has an EC50 of under 1 µM.
`CCC1(c2ccc(OC)c(OC)c2)C(C#N)=C(N)Oc2[nH]nc(C)c21` (stereo not shown) [Compound 2.21.] showed an EC50 of under 1 µM.
With `CCc1n[nH]c2c1C(c1ccc(Cl)cc1)(C1CC1)C(C#N)=C(N)O2` (stereo not shown) [Compound 2.114.] the EC50 was under 0.1 µM.
`CCc1n[nH]c2c1C(c1ccc(OC)c(C(F)(F)F)c1)(C1CC1)C(C#N)=C(N)O2` (stereo not shown) [Compound 2.152.] gave an EC50 of under 1 µM.
In the case of `COC(=O)c1cc(-c2cc(C#N)cc(C3(C4CCC4)C(C#N)=C(N)Oc4[nH]nc(C)c43)c2)cc(C(F)(F)F)c1` (stereo not shown) [Compound 2.552], the EC50 is reported as under 0.1 µM.
With `Cc1n[nH]c2c1C(c1cc(Cl)cc(-c3ccsc3)c1)(C1CCC1)C(C#N)=C(N)O2` (stereo not shown) [Compound 2.198.] the EC50 was under 0.01 µM.
`Cc1n[nH]c2c1C(c1cc(Cl)cc(CCC#N)c1)(C1CCC1)C(C#N)=C(N)O2` (stereo not shown) [Compound 2.555] was tested, and the EC50 was under 0.01 µM.
`CCc1n[nH]c2c1C(c1cccc(Cl)c1)(C1CCC1)C(C#N)=C(N)O2` (stereo not shown) [Compound 2.173.] showed an EC50 of under 0.1 µM.
`CCC1(c2cc(Br)c(C)c(Br)c2)C(C#N)=C(N)Oc2[nH]nc(C)c21` (stereo not shown) [Compound 2.473] was tested, and the EC50 was under 0.01 µM.
`Cc1n[nH]c2c1C(c1cc(Cl)cc(-c3ccc(NS(=O)(=O)C(F)(F)F)cc3)c1)(C1CCC1)C(C#N)=C(N)O2` (stereo not shown) [Compound 2.595] showed an EC50 of under 0.01 µM.
Work on `Cc1n[nH]c2c1C(c1cc(C#N)cc(-c3ccc(OCC(=O)O)cc3)c1)(C1CCC1)C(C#N)=C(N)O2` (stereo not shown) [Compound 2.538] yielded an EC50 of under 0.01 µM.
`CCC1(c2ccc(F)c(F)c2)C(C#N)=C(N)Oc2[nH]nc(C)c21` (stereo not shown) [Compound 2.16.] gave an EC50 of under 10 µM.
`Cc1n[nH]c2c1C(c1cc(Cl)cc(-c3ccc(Cl)c(C(=O)O)c3)c1)(C1CCC1)C(C#N)=C(N)O2` (stereo not shown) [Compound 2.557] was tested, and the EC50 was under 0.01 µM.
`CCC1(c2cc(C(F)(F)F)cc(C(F)(F)F)c2)C(C#N)=C(N)Oc2[nH]nc(C)c21` (stereo not shown) [Compound 2.47.] was tested, and the EC50 was under 0.1 µM.
`COc1ccc(C2(C3CCCC3)C(C#N)=C(N)Oc3[nH]nc(C)c32)cc1Cl` (stereo not shown) [Compound 2.203.] showed an EC50 of under 1 µM.
`Cc1n[nH]c2c1C(c1cc(C#N)cc(-c3cc(F)cc(C(=O)O)c3)c1)(C1CCC1)C(C#N)=C(N)O2` (stereo not shown) [Compound 2.545] showed an EC50 of under 0.01 µM.
`COCOc1cc(C#N)cc(C2(C3CCC3)C(C#N)=C(N)Oc3[nH]nc(C)c32)c1` (stereo not shown) [Compound 2.477] gave an EC50 of under 0.01 µM.
Work on `COC(=O)c1ccc(-c2cc(C#N)cc(C3(C4CCC4)C(C#N)=C(N)Oc4[nH]nc(C)c43)c2)cc1C(=O)OC` (stereo not shown) [Compound 2.550] yielded an EC50 of under 0.01 µM.
Compound `CCC1(c2ccc(Oc3ccccc3)cc2)C(C#N)=C(N)Oc2[nH]nc(C3CC3)c21` (stereo not shown) [Compound 2.131.] has an EC50 of under 10 µM.

Same assay, conditions: inhibition of initial velocity of Arabidopsis thaliana SHMT
Work on `CCc1n[nH]c2c1C(c1ccc(Cl)s1)(C1CC1)C(C#N)=C(N)O2` (stereo not shown) [Compound 4.78] yielded an EC50 of under 10 µM.
`Cc1n[nH]c2c1C(c1cncc(C(F)(F)F)c1)(C1CCC1)C(C#N)=C(N)O2` (stereo not shown) [Compound 4.35] gave an EC50 of under 0.01 µM.
With `Cc1n[nH]c2c1C(c1cncc(Cl)c1)(C1CCC1)C(C#N)=C(N)O2` (stereo not shown) [Compound 4.11] the EC50 was under 0.01 µM.
`Cc1n[nH]c2c1C(c1ccc3ccccc3c1)(C1(F)CC1)C(C#N)=C(N)O2` (racemic) [Compound 4.59] was tested, and the EC50 was under 0.1 µM.
Compound `Cc1n[nH]c2c1C(c1ccc(-c3ccccc3)s1)(C1CC1)C(C#N)=C(N)O2` (stereo not shown) [Compound 4.55] has an EC50 of under 0.1 µM.
In the case of `Cc1n[nH]c2c1C(c1cc3ccccc3s1)(C1CCC1)C(C#N)=C(N)O2` (stereo not shown) [Compound 4.28], the EC50 is reported as under 0.01 µM.
